Measured values: patent EP4553080A1, “NUCLEOSIDE DERIVATIVES AS ANTIVIRAL AGENTS AGAINST CORONAVIRUSES” (Ustav Organicke Chemie a Biochemie AV CR, v.v.i., priority 2023, dated 2025)

Biological target: nsp14 methyltransferase from SARS-CoV-2 (Severe acute respiratory syndrome coronavirus 2, UniProt P0DTD1)
Experiment: Nsp14 MTase activity inhibition in vitro (EchoMS assay)
Assay type: biochemical
Conditions: recombinant nsp14 protein expressed in E. coli; dose-response curve

Structure (SMILES)	IC50 [nM]
C#Cc1cn([C@@H]2O[C@H](CSCc3c(C)noc3-c3ccccc3)[C@@H](O)[C@H]2O)c2ncnc(N)c12 [Compound 140b, (2R,3R,4S,5S)-2-(4-Amino-5-ethynyl-7H-pyrrolo[2,3-d]pyrimidin-7-yl)-5-((((3-methyl-5-phenylisoxazol-4-yl)methyl)thio)methyl)tetrahydrofuran-3,4-diol]	30 to 100
Cc1noc(-c2ccc([N+](=O)[O-])cc2)c1CSC[C@H]1O[C@@H](n2ccc3c(N)ncnc32)[C@H](O)[C@@H]1O [Compound 93c, (2R,3R,4S,5S)-2-(4-Amino-7H-pyrrolo[2,3-d]pyrimidin-7-yl)-5-((((3-methyl-5-(4-nitrophenyl)isoxazol-4-yl)methyl)thio)methyl)tetrahydrofuran-3,4-diol]	100 to 500
Cc1noc(-c2ccccc2)c1CSC[C@H]1O[C@@H](n2cc(Cc3ccc4ccccc4c3)c3c(N)ncnc32)[C@H](O)[C@@H]1O [Compound 186b, (2R,3R,4S,5S)-2-(4-Amino-5-(naphthalen-2-ylmethyl)-7H-pyrrolo[2,3-d]pyrimidin-7-yl)-5-((((3-methyl-5-phenylisoxazol-4-yl)methyl)thio)methyl)tetrahydrofuran-3,4-diol]	500 to 2000
Cc1noc(-c2ccccc2)c1CSC[C@H]1O[C@@H](n2cc(-c3ccc(OC(F)(F)F)cc3)c3c(N)ncnc32)[C@H](O)[C@@H]1O [Compound 146b, (2R,3R,4S,5S)-2-(4-Amino-5-(4-(trifluoromethoxy)phenyl)-7H-pyrrolo[2,3-d]pyrimidin-7-yl)-5-((((3-methyl-5-phenylisoxazol-4-yl)methyl)thio)methyl)tetrahydrofuran-3,4-diol]	100 to 500
Cc1cccc(-c2ccccc2)c1CSC[C@H]1O[C@@H](n2ccc3c(N)ncnc32)[C@H](O)[C@@H]1O [Compound 58c, (2R,3R,4S,5S)-2-(4-Amino-7H-pyrrolo[2,3-d]pyrimidin-7-yl)-5-((((3-methyl-[1,1'-biphenyl]-2-yl)methyl)thio)methyl)tetrahydrofuran-3,4-diol]	500 to 2000
Cc1ccc(-c2onc(C)c2CSC[C@H]2O[C@@H](n3ccc4c(N)ncnc43)[C@H](O)[C@@H]2O)cc1C [Compound 95c, (2R,3R,4S,5S)-2-(4-Amino-7H-pyrrolo[2,3-d]pyrimidin-7-yl)-5-((((5-(3,4-dimethylphenyl)-3-methylisoxazol-4-yl)methyl)thio)methyl)tetrahydrofuran-3,4-diol]	10 to 30
Cc1noc(-c2ccccc2)c1CSC[C@H]1O[C@@H](n2cc(Cc3ccccc3)c3c(N)ncnc32)[C@H](O)[C@@H]1O [Compound 185b, (2R,3R,4S,5S)-2-(4-Amino-5-benzyl-7H-pyrrolo[2,3-d]pyrimidin-7-yl)-5-((((3-methyl-5-phenylisoxazol-4-yl)methyl)thio)methyl)tetrahydrofuran-3,4-diol]	100 to 500
Cc1ncn(-c2ccccc2)c1CSC[C@H]1O[C@@H](n2ccc3c(N)ncnc32)[C@H](O)[C@@H]1O [Compound 61c, (2R,3R,4S,5S)-2-(4-Amino-7H-pyrrolo[2,3-d]pyrimidin-7-yl)-5-((((4-methyl-1-phenyl-1H-imidazol-5-yl)methyl)thio)methyl)tetrahydrofuran-3,4-diol]	100 to 500
Cc1ncnc(-c2ccccc2)c1CSC[C@H]1O[C@@H](n2cc(-c3ccc(C#N)cc3)c3c(N)ncnc32)[C@H](O)[C@@H]1O [Compound 232b, 4-(4-Amino-7-((2R,3R,4S,5S)-3,4-dihydroxy-5-((((4-methyl-6-phenylpyrimidin-5-yl)methyl)thio)methyl)tetrahydrofuran-2-yl)-7H-pyrrolo[2,3-d]pyrimidin-5-yl)benzonitrile]	30 to 100
Cc1ncnc(-c2ccc3c(c2)OCO3)c1CSC[C@H]1O[C@@H](n2ccc3c(N)ncnc32)[C@H](O)[C@@H]1O [Compound 102c, (2R,3R,4S,5S)-2-(4-Amino-7H-pyrrolo[2,3-d]pyrimidin-7-yl)-5-((((4-(benzo[d][1,3]dioxol-5-yl)-6-methylpyrimidin-5-yl)methyl)thio)methyl)tetrahydrofuran-3,4-diol]	30 to 100
Cc1scc(-c2ccccc2)c1CSC[C@H]1O[C@@H](n2ccc3c(N)ncnc32)[C@H](O)[C@@H]1O [Compound 52c, (2R,3R,4S,5S)-2-(4-Amino-7H-pyrrolo[2,3-d]pyrimidin-7-yl)-5-((((2-methyl-4-phenylthiophen-3-yl)methyl)thio)methyl)tetrahydrofuran-3,4-diol]	500 to 2000
Cc1noc(-c2ccc(N)cc2)c1CSC[C@H]1O[C@@H](n2cc(C#Cc3cncnc3)c3c(N)ncnc32)[C@H](O)[C@@H]1O [Compound 241c, (2R,3R,4S,5S)-2-(4-Amino-5-(pyrimidin-5-ylethynyl)-7H-pyrrolo[2,3-d]pyrimidin-7-yl)-5-((((5-(4-aminophenyl)-3-methylisoxazol-4-yl)methyl)thio)methyl)tetrahydrofuran-3,4-diol]	10 to 30
Cc1noc(-c2ccccc2)c1CSC[C@H]1O[C@@H](n2cc(SCc3ccccc3)c3c(N)ncnc32)[C@H](O)[C@@H]1O [Compound 190b, (2R,3R,4S,5S)-2-(4-Amino-5-(benzylthio)-7H-pyrrolo[2,3-d]pyrimidin-7-yl)-5-((((3-methyl-5-phenylisoxazol-4-yl)methyl)thio)methyl)tetrahydrofuran-3,4-diol]	100 to 500
Cc1noc(-c2ccccc2)c1CSC[C@H]1O[C@@H](n2cc(C#Cc3ccccn3)c3c(N)ncnc32)[C@H](O)[C@@H]1O [Compound 171b, (2R,3R,4S,5S)-2-(4-Amino-5-(pyridin-2-ylethynyl)-7H-pyrrolo[2,3-d]pyrimidin-7-yl)-5-((((3-methyl-5-phenylisoxazol-4-yl)methyl)thio)methyl)tetrahydrofuran-3,4-diol]	10 to 30
Cc1noc(-c2ccc(N)cc2)c1CSC[C@H]1O[C@@H](n2ccc3c(N)ncnc32)[C@H](O)[C@@H]1O [Compound 111, (2R,3R,4S,5S)-2-(4-Amino-7H-pyrrolo[2,3-d]pyrimidin-7-yl)-5-((((5-(4-aminophenyl)-3-methylisoxazol-4-yl)methyl)thio)methyl)tetrahydrofuran-3,4-diol]	30 to 100
Cc1noc(-c2ccccc2)c1CSC[C@H]1O[C@@H](n2cc(CCCC#N)c3c(N)ncnc32)[C@H](O)[C@@H]1O [Compound 137b, 4-(4-Amino-7-((2R,3R,4S,5S)-3,4-dihydroxy-5-((((3-methyl-5-phenylisoxazol-4-yl)methyl)thio)methyl)tetrahydrofuran-2-yl)-7H-pyrrolo[2,3-d]pyrimidin-5-yl)butanenitrile]	10 to 30
Cc1noc(-c2cccc3ccccc23)c1CSC[C@H]1O[C@@H](n2ccc3c(N)ncnc32)[C@H](O)[C@@H]1O [Compound 100c, (2R,3R,4S,5S)-2-(4-Amino-7H-pyrrolo[2,3-d]pyrimidin-7-yl)-5-((((3-methyl-5-(naphthalen-1-yl)isoxazol-4-yl)methyl)thio)methyl)tetrahydrofuran-3,4-diol]	10 to 30
Cc1noc(-c2ccc(F)cc2)c1CSC[C@H]1O[C@@H](n2ccc3c(N)ncnc32)[C@H](O)[C@@H]1O [Compound 97c, (2R,3R,4S,5S)-2-(4-Amino-7H-pyrrolo[2,3-d]pyrimidin-7-yl)-5-((((5-(4-fluorophenyl)-3-methylisoxazol-4-yl)methyl)thio)methyl)tetrahydrofuran-3,4-diol]	100 to 500
COc1ccc(-c2cn([C@@H]3O[C@H](CSCc4c(C)noc4-c4ccccc4)[C@@H](O)[C@H]3O)c3ncnc(N)c23)cc1OC [Compound 147b]	10 to 30
Cc1cc(C#N)cc(C)c1-c1cn([C@@H]2O[C@H](CSCc3c(C)noc3-c3ccccc3)[C@@H](O)[C@H]2O)c2ncnc(N)c12 [Compound 150, 4-(4-Amino-7-((2R,3R,4S,5S)-3,4-dihydroxy-5-((((3-methyl-5-phenylisoxazol-4-yl)methyl)thio)methyl)tetrahydrofuran-2-yl)-7H-pyrrolo[2,3-d]pyrimidin-5-yl)-3,5-dimethylbenzonitrile]	10 to 30
Cc1noc(-c2ccccc2)c1CSC[C@H]1O[C@@H](n2cc(-c3ccco3)c3c(N)ncnc32)[C@H](O)[C@@H]1O [Compound 153]	30 to 100
Cc1noc(-c2ccccc2)c1CSC[C@H]1O[C@@H](n2cc(-c3ccc(C(F)(F)F)cc3)c3c(N)ncnc32)[C@H](O)[C@@H]1O [Compound 145b]	100 to 500
Nc1ncnc2c1ccn2[C@@H]1O[C@H](CSCc2c(-c3ccccc3)noc2-c2ccccc2)[C@@H](O)[C@H]1O [Compound 109c, (2R,3R,4S,5S)-2-(4-Amino-7H-pyrrolo[2,3-d]pyrimidin-7-yl)-5-((((3,5-diphenylisoxazol-4-yl)methyl)thio)methyl)tetrahydrofuran-3,4-diol]	100 to 500
Nc1ncnc2c1ccn2[C@@H]1O[C@H](CSCc2c(-c3ccccc3)noc2C2CC2)[C@@H](O)[C@H]1O [Compound 108c, (2R,3R,4S,5S)-2-(4-Amino-7H-pyrrolo[2,3-d]pyrimidin-7-yl)-5-((((5-cyclopropyl-3-phenylisoxazol-4-yl)methyl)thio)methyl)tetrahydrofuran-3,4-diol]	100 to 500
Cc1cncc(-c2ccccc2)c1CSC[C@H]1O[C@@H](n2ccc3c(N)ncnc32)[C@H](O)[C@@H]1O [Compound 57c, (2R,3R,4S,5S)-2-(4-Amino-7H-pyrrolo[2,3-d]pyrimidin-7-yl)-5-((((3-methyl-5-phenylpyridin-4-yl)methyl)thio)methyl)tetrahydrofuran-3,4-diol]	30 to 100
COc1ccc(-c2onc(C)c2CSC[C@H]2O[C@@H](n3ccc4c(N)ncnc43)[C@H](O)[C@@H]2O)cc1 [Compound 94c, (2R,3R,4S,5S)-2-(4-Amino-7H-pyrrolo[2,3-d]pyrimidin-7-yl)-5-((((5-(4-methoxyphenyl)-3-methylisoxazol-4-yl)methyl)thio)methyl)tetrahydrofuran-3,4-diol]	10 to 30
Cc1noc(C2CCCCC2)c1CSC[C@H]1O[C@@H](n2ccc3c(N)ncnc32)[C@H](O)[C@@H]1O [Compound 98c, (2R,3R,4S,5S)-2-(4-Amino-7H-pyrrolo[2,3-d]pyrimidin-7-yl)-5-((((5-cyclohexyl-3-methylisoxazol-4-yl)methyl)thio)methyl)tetrahydrofuran-3,4-diol]	500 to 2000
